The values that follow are results of earlier work, collected in patent publication US7612104B2, “Bicyclic aryl-sulfonic acid [1,3,4]-thiadiazol-2-yl-amides, processes for their preparation, pharmaceutical compositions and methods for their use” (Sanofi-Aventis, priority 2005, dated 2009).

Read-outs that look alike come from different tables or passages of the source.

The test system of data set [1] is PPARdelta. The conditions noted are these: diabetic animal model; cited from earlier work.
In data set [2] the target is T1, PPARdelta (Macaca mulatta, UniProt I0FFS1).
T1 construct: host or cells: rhesus monkeys in vivo
T1 sequence (I0FFS1 1-441): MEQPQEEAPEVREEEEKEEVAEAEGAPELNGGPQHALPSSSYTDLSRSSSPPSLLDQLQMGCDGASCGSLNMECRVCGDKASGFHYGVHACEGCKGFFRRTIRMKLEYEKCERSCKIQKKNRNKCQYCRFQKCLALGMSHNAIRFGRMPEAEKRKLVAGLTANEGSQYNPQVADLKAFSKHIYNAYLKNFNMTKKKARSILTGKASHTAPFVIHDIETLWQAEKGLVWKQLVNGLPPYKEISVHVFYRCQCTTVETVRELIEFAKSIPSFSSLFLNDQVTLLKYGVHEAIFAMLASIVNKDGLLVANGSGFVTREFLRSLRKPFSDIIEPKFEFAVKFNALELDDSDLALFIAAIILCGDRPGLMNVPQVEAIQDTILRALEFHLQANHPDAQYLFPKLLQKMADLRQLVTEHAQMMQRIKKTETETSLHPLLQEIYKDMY
The conditions noted are these: obese, insulin resistant rhesus monkeys; cited from earlier work.

The subject of data set [3] is PPARdelta/PPARalpha. The note with it: two weeks clinical trials in healthy volunteers; cited from earlier work.
For data set [4], the system named is PPARdelta/PPARalpha. The note with it: rhesus and cynomolgus monkeys; cited from earlier work.

For the molecule `CCCc1c(OCCCOc2ccc(OCC(=O)O)cc2)ccc(C(C)=O)c1O` [Example L-165041], the plasma cholesterol entry with PPARdelta [1] is on record as “raises plasma cholesterol”.

For `Cc1cc(SCc2sc(-c3ccc(C(F)(F)F)cc3)nc2C)ccc1OCC(=O)O` [GW501516], on PPARdelta [2], the HDL-cholesterol result is reported as “raises”, the insulin levels result is on record as “decreases”, the “plasma LDL-cholesterol” value was “decreases” and the triglycerides entry is reported as “decreases”.

`CCCc1c(OCCCSc2nnc(SCC(=O)O)s2)ccc(C(C)=O)c1O` [YM-16638]: the plasma lipids result with PPARdelta/PPARalpha [3] is “acts in a similar manner”; in the data set with PPARdelta/PPARalpha [4], “significantly lowers”.
